Laboratory results taken from US12679839B2, “Cyclin-dependent kinase 7 (CDK7) non-covalent inhibitors” (JANSSEN PHARMACEUTICA NV, priority 2020, dated 2026).

Key:
[1] = target: T1, CDK7/Cyclin H/MAT-1 complex (Homo sapiens, UniProt P50613); test: Flint assay, end-point fluorescence (5 nM CDK7/Cyclin H/MAT-1 complex); type: biochemical; conditions: for IC50: read-out: CDK7 (5 nM) pIC50 (converted)
T1 construct: Human CDK7 (amino acids 1-346); His6 (N); TEV protease cleavage site (N); made in house; host or cells: baculovirus-SF9 insect cells
Method: Human CDK7 (amino acids 1-346) containing an N-terminal His6-tag followed by a tobacco etch virus (TEV) protease cleavage site, human MAT1 (amino acids 1-309) and human cyclin H (amino acids 1-323) were co-expressed in the baculovirus-SF9 insect cell expression system to generate a trimeric complex. Cell pellets were collected 72 h post-infection and were resuspended by Dounce homogenization in 20 mM Hepes-NaOH (pH 8.0), 300 mM NaCl, 10% glycerol, 2 mM dithiothreitol DTT), and 20 mM Imidazole supplemented with cOmplete™ Protease Inhibitor Cocktail (Roche) and 25 U/mL Benzonase® Nuclease HC according to the manufacturer's instructions. Cells were lysed by passing through a Microfluidics M110Y Microfluidizer 3 times at 600 kPa followed by centrifugation at 38,000×g at 4° C. for 1 hour. The supernatant was loaded onto a pre-equilibrated HisTrap HP column and eluted in 20 mM Hepes-NaOH (pH 8.0), 50 mM NaCl, 10% glycerol, 2 mM DTT, and 400 mM Imidazole. The eluate was further purified by gel filtration on a Superdex S200 16/60 column and eluted with 20 mM Hepes-NaOH (pH 7.5), 50 mM NaCl, 10% Glycerol, 2 mM DTT. Fractions containing a trimeric complex of CDK7, cyclin H, and MAT1 in a 1:1:1 ratio were pooled and concentrated to 3 mg/mL in a 10 kDa MWCO concentrator, and diluted to a final concentration of 1.6 mg/mL in 11.1 mM Hepes-NaOH (pH 8.0), 27.8 mM NaCl, 1.1 mM DTT and 50% glycerol.
Compounds with potencies approaching the limit of detection of the assay (IC50≤10 nM) were further assessed in a more sensitive fluorescence end-point assay.
[formula] where νo is the rate in the absence of inhibitor, νmin is the rate at highest inhibitor concentration, and h is the Hill coefficient. Flint Assay (5 nM CDK7/Cyclin H/MAT-1 Complex)
The continuous absorbance assay was converted to an end-point fluorescence assay following the NADH fluorescence signal decrease at the excitation and emission wavelengths of 340 nm and 440 nm, respectively.
Under the same concentrations of substrates and coupling reagents used in the absorbance assay, the fluorescence assay was performed at a reduced concentration of the CDK7/Cyclin H/MAT-1 complex of 5 nM (final concentration) with a reaction time of 24 hours. The percent of inhibition was calculated by the following equation. Percent of inhibition=(Sample−NC)/(PC−NC)*100 where NC is the mean if negative control (reaction without inhibitor), and PC is the mean of positive control (reaction with complete inhibition).
Dosing curves were fitted using the following equation to obtain IC50: Y=Bottom+(Top−Bottom)/(1+10^((log IC50−X)*Hill slope)) where X=log10 of the compound concentration; top and bottom can be defined by PC and NC respectively. Imaging-Based Cellular RNA PolII Ser5 Phosphorylation Assay

[2] = test system: RNA polymerase II Serine 5 phosphorylation (Rpb1 CTD), downstream substrate of CDK7; test: Imaging-based cellular RNA PolII Ser5 phosphorylation assay in A549 cells; type: cell-based, human; conditions: Homo sapiens, A549, 3 h, challenged with compound for 3 hours, read-out: pRNA polII Ser5 (A549) pIC50 (converted)
Method in brief: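 A549 cells seeded 20 h in DMEM with 1% FBS, then exposed to compound for 3 h at 37 °C; fixed, methanol-permeabilized and immunostained for phospho-Rpb1 CTD Ser5, read by automated imaging. Signal normalized to DMSO (high) and 10 μM LDC4297 (low) controls; IC50 from four-parameter fit of % control vs concentration.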

T1 sequence (P50613 whole entry, the tested form may be a part): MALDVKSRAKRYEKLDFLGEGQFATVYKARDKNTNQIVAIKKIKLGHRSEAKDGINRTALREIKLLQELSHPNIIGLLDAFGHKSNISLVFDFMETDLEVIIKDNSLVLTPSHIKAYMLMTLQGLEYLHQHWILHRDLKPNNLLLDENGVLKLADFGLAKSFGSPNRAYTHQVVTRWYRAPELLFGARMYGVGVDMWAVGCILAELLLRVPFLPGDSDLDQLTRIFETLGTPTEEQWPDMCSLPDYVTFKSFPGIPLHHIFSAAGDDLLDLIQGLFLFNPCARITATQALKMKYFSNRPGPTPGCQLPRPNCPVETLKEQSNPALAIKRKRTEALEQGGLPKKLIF
T1 sequence (P51946 whole entry partner, the tested form may be a part): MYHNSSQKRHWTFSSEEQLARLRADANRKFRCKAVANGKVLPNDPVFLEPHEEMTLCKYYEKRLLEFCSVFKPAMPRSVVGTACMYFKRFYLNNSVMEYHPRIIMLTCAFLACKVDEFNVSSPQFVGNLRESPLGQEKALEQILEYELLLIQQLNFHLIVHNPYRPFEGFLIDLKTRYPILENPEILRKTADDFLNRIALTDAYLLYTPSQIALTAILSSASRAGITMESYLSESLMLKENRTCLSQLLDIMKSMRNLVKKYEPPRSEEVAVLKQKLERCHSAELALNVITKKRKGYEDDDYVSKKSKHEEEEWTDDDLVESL
T1 sequence (P51948 whole entry partner, the tested form may be a part): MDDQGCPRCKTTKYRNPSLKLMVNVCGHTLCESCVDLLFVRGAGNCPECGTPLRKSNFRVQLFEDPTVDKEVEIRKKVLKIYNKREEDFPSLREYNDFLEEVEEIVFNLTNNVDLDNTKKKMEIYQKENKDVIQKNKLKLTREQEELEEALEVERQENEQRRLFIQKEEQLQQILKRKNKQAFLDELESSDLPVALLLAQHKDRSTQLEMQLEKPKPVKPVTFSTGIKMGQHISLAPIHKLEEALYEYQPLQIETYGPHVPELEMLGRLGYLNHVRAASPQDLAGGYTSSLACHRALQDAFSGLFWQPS

With `C[C@@H]1Cc2cnc(NC3CCOCC3)nc2CN1C(=O)[C@@H]1CC[C@@H](N(C)C)CN1c1ccccc1` (mixture of isomers) [Compound 167] the “CDK7 (5 nM) pIC50” value [1] was 6.95 and the IC50 [2] was 5750 nM.

An IC50 [1] of 4.47 nM and an IC50 [2] of 933 nM were found for `C[C@@H]1Cc2cnc(N[C@H]3CCC(=O)N(C)C3)nc2CN1C(=O)[C@H]1CCN(C)C[C@@H]1c1ccccc1` (relative stereo) [Compound 7] in this work.

An IC50 [1] of 2.69 nM and an IC50 [2] of 69.2 nM were found for `C[C@@H]1Cc2cnc(N[C@@H]3CCOC4(CCC4)C3)nc2CN1C(=O)[C@H]1CCN(C)C[C@@H]1c1ccccc1` (relative stereo) [Compound 8] in this work.

An IC50 [1] of 6.17 nM and an IC50 [2] of 309 nM were found for `C[C@@H]1Cc2cnc(N[C@H]3CCOC4(CCC4)C3)nc2CN1C(=O)[C@H]1CCN(C)C[C@@H]1c1ccccc1` (relative stereo) [Compound 9] in this work.

An IC50 [1] of 7.24 nM and an IC50 [2] of about 52.5 nM were found for `C[C@@H]1Cc2cnc(N[C@@H]3CCOC(C)(C)C3)nc2CN1C(=O)[C@H]1CCN(C)C[C@@H]1c1ccccc1` (relative stereo) [Compound 40] in this work.

An IC50 [1] of 19.5 nM and an IC50 [2] of 1700 nM were found for `Cc1ccc([C@@H]2CN(C)CC[C@H]2C(=O)N2Cc3nc(NC4CCOCC4)ncc3C[C@H]2C)cn1` (relative stereo) [Compound 108] in this work.

An IC50 [1] of 12.9 nM and an IC50 [2] of 437 nM were found for `CO[C@H]1CC[C@H](Nc2ncc3c(n2)CN(C(=O)[C@H]2CCN(C)C[C@@H]2c2ccc(C)nc2)[C@H](C)C3)CC1` (relative stereo) [Compound 110] in this work.

An IC50 [1] of 3.72 nM and an IC50 [2] of about 3.89 nM were found for `Cc1cccc([C@H]2CN(C)CC[C@@H]2C(=O)N2Cc3nc(Nc4cnn(C)c4)ncc3C[C@H]2C)c1` (relative stereo) [Compound 126] in this work.

An IC50 [1] of 75.9 nM and an IC50 [2] of 1510 nM were found for `C[C@@H]1Cc2cnc(NCc3ccn(C)n3)nc2CN1C(=O)[C@@H]1CCN(C)C[C@H]1c1cccc(OC(F)(F)F)c1` (relative stereo) [Compound 127] in this work.

An IC50 [1] of 6.76 nM and an IC50 [2] of 102 nM were found for `C[C@@H]1Cc2cnc(NCc3ccn(C)n3)nc2CN1C(=O)[C@H]1CCN(C)C[C@@H]1c1cccc(OC(F)(F)F)c1` (relative stereo) [Compound 128] in this work.

An IC50 [1] of 2.63 nM and an IC50 [2] of 35.5 nM were found for `C[C@H]1Cc2cnc(NCc3ccn(C)n3)cc2CN1C(=O)[C@H]1CCN(C)C[C@@H]1c1ccccc1` (relative stereo) [Compound 174] in this work.

An IC50 [1] of 9.12 nM and an IC50 [2] of 380 nM were found for `C[C@H]1Cc2cnc(Nc3cnn(C)c3)cc2CN1C(=O)[C@H]1CCN(C)C[C@@H]1c1ccccc1` (relative stereo) [Compound 176] in this work.

An IC50 [1] of 5.37 nM and an IC50 [2] of 148 nM were found for `Cc1cccc([C@H]2CN(C)CC[C@@H]2C(=O)N2Cc3nc(Nc4cnn(C)c4)ncc3[C@@H]3C[C@@H]32)c1` (relative stereo) [Compound 203] in this work.

An IC50 [1] of 4.79 nM and an IC50 [2] of 182 nM were found for `C[C@H]1Cc2cnc(NC3CCOCC3)nc2CN1C(=O)N1CCN(C)C[C@H]1c1cccc(F)c1` (relative stereo) [Compound 212] in this work.

An IC50 [1] of 5.13 nM and an IC50 [2] of 123 nM were found for `C[C@@H]1Cc2cnc(N[C@H](C)c3ccn(C)n3)nc2CN1C(=O)[C@H]1CCN(C)C[C@@H]1c1ccccc1` (single isomer, unassigned) [Compound 54] in this work.

An IC50 [1] of 38.9 nM and an IC50 [2] of 4470 nM were found for `C[C@H](Nc1ncc2c(n1)CN(C(=O)[C@H]1CCN(C)C[C@@H]1c1ccccc1)[C@H](C)C2)c1ccn(C)n1` (single isomer, unassigned) [Compound 55] in this work.

With `C[C@@H]1Cc2cnc(NCc3ccccc3)nc2CN1C(=O)[C@H]1CCN(CC2COC2)C[C@@H]1c1ccccc1` (single isomer, unassigned) [Compound 155] the “CDK7 (5 nM) pIC50” value [1] was 8.2 and the IC50 [2] was 537 nM.

For `CC(C)N1CC[C@H](C(=O)N2Cc3nc(NC4CCOCC4)ncc3C[C@H]2C)[C@@H](c2cccc(Cl)c2)C1` (single isomer, unassigned) [Compound 160], the “CDK7 (5 nM) pIC50” value [1] was 8.58 and the IC50 [2] was 135 nM.

An IC50 [1] of 5.75 nM and an IC50 [2] of 288 nM were found for `C[C@H]1Cc2cnc(NC3CCOCC3)cc2CN1C(=O)[C@H]1CCN(C)C[C@@H]1c1ccccc1` (single isomer, unassigned) [Compound 171a] in this work.

For `C[C@H]1Cc2cnc(NC3(c4ccccc4)COC3)cc2CN1C(=O)[C@H]1CCN(C)C[C@@H]1c1ccccc1` (single isomer, unassigned) [Compound 175], the “CDK7 (5 nM) pIC50” value [1] was 8.13 and the IC50 [2] was 166 nM.

With `CN1CC[C@H](C(=O)N2Cc3nc(NCc4ccn(C)n4)ncc3CC2(C)C)[C@@H](c2ccccc2)C1` (single isomer, unassigned) [Compound 191] the “CDK7 (5 nM) pIC50” value [1] was 7.41 and the IC50 [2] was about 4270 nM.

For `C[C@@H]1Cc2cnc(NCc3ccn(C)n3)nc2CN1C(=O)[C@H]1CCN(C)C[C@@H]1c1ccccc1` [Compound 1], the “CDK7 (5 nM) pIC50” value [1] was 8.61 and the IC50 [2] was about 45.7 nM.

For `C[C@@H]1Cc2cnc(NC3CCC(OCC4CC4)CC3)nc2CN1C(=O)[C@H]1CCN(C)C[C@@H]1c1ccccc1` (stereo partly shown) [Compound 3], the “CDK7 (5 nM) pIC50” value [1] was 8.3 and the IC50 [2] was 60.3 nM.

For `CO[C@]1(C)CC[C@@H](Nc2ncc3c(n2)CN(C(=O)[C@H]2CCN(C)C[C@@H]2c2ccccc2)[C@H](C)C3)CC1` [Compound 10], the “CDK7 (5 nM) pIC50” value [1] was 8.11 and the IC50 [2] was 158 nM.

With `C[C@@H]1Cc2cnc(N[C@H]3CC[C@H](O)CC3)nc2CN1C(=O)[C@H]1CCN(C)C[C@@H]1c1ccccc1` [Compound 12] the “CDK7 (5 nM) pIC50” value [1] was 8.49 and the IC50 [2] was 93.3 nM.

In the case of `C[C@@H]1Cc2cnc(N[C@H]3CC[C@H](C)CC3)nc2CN1C(=O)[C@H]1CCN(C)C[C@@H]1c1ccccc1` [Compound 13], the “CDK7 (5 nM) pIC50” value [1] is reported as 8.85 and the IC50 [2] is reported as about 33.9 nM.

For `C[C@H](Nc1ncc2c(n1)CN(C(=O)[C@H]1CCN(C)C[C@@H]1c1ccccc1)[C@H](C)C2)c1ccccn1` [Compound 20], the “CDK7 (5 nM) pIC50” value [1] was 8.19 and the IC50 [2] was about 14.1 nM.

With `C[C@@H]1Cc2cnc(N[C@H](C)c3ccccc3)nc2CN1C(=O)[C@H]1CCN(C)C[C@@H]1c1ccccc1` [Compound 22] the “CDK7 (5 nM) pIC50” value [1] was 8.19 and the IC50 [2] was about 14.1 nM.

For `C[C@@H]1Cc2cnc(NC3Cc4ccccc4C3)nc2CN1C(=O)[C@H]1CCN(C)C[C@@H]1c1ccccc1` [Compound 29], the “CDK7 (5 nM) pIC50” value [1] was 8.55 and the IC50 [2] was 12.6 nM.

With `CO[C@H]1CC[C@H](Nc2ncc3c(n2)CN(C(=O)[C@H]2CCN(C)C[C@@H]2c2ccccc2)[C@H](C)C3)CC1` [Compound 37] the “CDK7 (5 nM) pIC50” value [1] was 8.6 and the IC50 [2] was about 33.9 nM.

With `C[C@@H]1Cc2cnc(NCc3ccccc3)nc2CN1C(=O)[C@H]1CCN(C)C[C@@H]1c1ccccc1` [Compound 43] the “CDK7 (5 nM) pIC50” value [1] was 8.11 and the IC50 [2] was 107 nM.

`C[C@@H]1Cc2cnc(NC3CCS(=O)(=O)CC3)nc2CN1C(=O)[C@H]1CCN(C)C[C@@H]1c1ccccc1` [Compound 44] was tested, and the “CDK7 (5 nM) pIC50” value [1] was 8.04 and the IC50 [2] was 3090 nM.

For `C[C@@H]1Cc2cnc(NC3CCN(CC(F)(F)F)CC3)nc2CN1C(=O)[C@H]1CCN(C)C[C@@H]1c1ccccc1` [Compound 45], the “CDK7 (5 nM) pIC50” value [1] was 7.65 and the IC50 [2] was 437 nM.

For `C[C@@H]1Cc2cnc(NC3CCOCC3)nc2CN1C(=O)[C@H]1CCN(C)C[C@@H]1c1ccccc1` [Compound 47], the “CDK7 (5 nM) pIC50” value [1] was 8.3 and the IC50 [2] was about 70.8 nM.

With `C[C@@H]1Cc2cnc(NCc3ccsc3)nc2CN1C(=O)[C@H]1CCN(C)C[C@@H]1c1ccccc1` [Compound 48] the “CDK7 (5 nM) pIC50” value [1] was 7.92 and the IC50 [2] was 132 nM.

With `C[C@@H]1Cc2cnc(NCC3CCS(=O)(=O)C3)nc2CN1C(=O)[C@H]1CCN(C)C[C@@H]1c1ccccc1` (stereo partly shown) [Compound 49] the “CDK7 (5 nM) pIC50” value [1] was 7.2 and the IC50 [2] was over 10000 nM.

With `Cc1ccc(CNc2ncc3c(n2)CN(C(=O)[C@H]2CCN(C)C[C@@H]2c2ccccc2)[C@H](C)C3)o1` [Compound 50] the “CDK7 (5 nM) pIC50” value [1] was 8.05 and the IC50 [2] was 72.4 nM.

An IC50 [1] of 8.32 nM and an IC50 [2] of 1320 nM were found for `C[C@@H]1Cc2cnc(NCc3cc[nH]n3)nc2CN1C(=O)[C@H]1CCN(C)C[C@@H]1c1ccccc1` [Compound 51] in this work.
